Patent US20200024278A1, “COMPOSITION COMPRISING ANTIBIOTIC COMPOUND AND AN HETEROCYCLIC COMPOUND AND THEIR USE IN PREVENTING OR TREATING BACTERIAL INFECTIONS” (MUTABILIS, priority 2016, published 2020)
Read-outs that look alike come from different tables or passages of the source.

Key:
PAE 27853 [1] = assay: MIC, broth microdilution (CLSI), substance alone or ATB combined with compound at 4 or 8 μg/mL; type: cell-based, P. aeruginosa; conditions: Pseudomonas aeruginosa, substance alone
Procedure, shortened: (§1)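 CLSI M7-A7 broth microdilution. ca-MHB, 5·10^5 CFU/mL log-phase cells, 16-20 h, 35° C, ambient air. Fosfomycin wells + 25 μg/ml glucose-6-phosphate. Visual MIC read.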

PAE 27853 [2] = type: cell-based, P. aeruginosa; conditions: tntbc: Too numerous to be counted
Procedure: (§2) Method 4: Determination of the Spontaneous Mutation Frequency of the Compounds Alone and Combined with Antibiotics.
(§3) Bacterial isolates (Table 3) were grown overnight at 35° C. on TSA plates (Becton-Dickinson and Company) in ambient air. After 24 h of incubation, isolated bacterial colonies were added to cation-adjusted Mueller-Hinton broth (ca-MHB; Becton-Dickinson and Company) and cultured for approximately 6 h at 35° C. The pre-culture was stopped once bacteria have reached an OD600 nm of 0.5 for 200 μL. The bacterial suspension was centrifuged at 4000 rpm for 20 min. The supernatant was then discarded and the bacterial pellet was dissolved in ca-MHB to obtain 10^9 to 10^10 CFU/mL. Assays including Fosfomycin were supplemented with 25 μg/ml of Glucose-6-phosphate. 100 μL of the adjusted bacterial suspension were spread on agar plates containing different concentrations of the compounds of the present invention alone or combined with an antibacterial (Table 1). The plates were incubated for 24-48 h at 35° C. in ambient air. CFU were numerated on each agar plate containing compound. The number of resistant colonies obtained was divided by the starting inoculum to give the frequency of spontaneous resistance for a given incubation time (24 and 48 h).

PAE UFR48 = type: cell-based, P. aeruginosa; conditions: tntbc: Too numerous to be counted
Procedure: as §2, §3

PAE UFR90 = type: cell-based, P. aeruginosa; conditions: tntbc: Too numerous to be counted
Procedure: as §2, §3

KPN UFR68 = assay: MIC, broth microdilution (CLSI), substance alone or ATB combined with compound at 4 or 8 μg/mL; type: cell-based, K. pneumoniae; conditions: Klebsiella pneumoniae, substance alone
Procedure, shortened: as §1

Row | Structure (SMILES) | MIC (PAE 27853 [1]) [µg/mL] | Frequency of spontaneous resistance (PAE 27853 [2]; single agent at 4.MIC) | Frequency of spontaneous resistance (PAE 27853 [2]; single agent at 8.MIC) | Frequency of spontaneous resistance (PAE UFR48; single agent at 4.MIC) | Frequency of spontaneous resistance (PAE UFR48; single agent at 8.MIC) | Frequency of spontaneous resistance (PAE UFR90; single agent at 4.MIC) | Frequency of spontaneous resistance (PAE UFR90; single agent at 8.MIC) | MIC (KPN UFR68) [µg/mL]
1 | NC[C@H]1C=C(c2cnco2)[C@@H]2CN1C(=O)N2OS(=O)(=O)[O-].O=C(O)C(F)(F)F.[Na+] (relative stereo) [Example 1, sodium and 2,2,2-trifluoroacetate [trans-2-(azaniumylmethyl)-4-oxazol-5-yl-7-oxo-1,6-diazabicyclo[3.2.1]oct-3-en-6-yl] sulfate] | 1 | tntbc | tntbc | tntbc | tntbc | tntbc | tntbc | 
2 | NCC[C@H](O)C(=O)N[C@@H]1C[C@H](N)[C@@H](O[C@H]2O[C@H](CN)[C@@H](O)[C@H](O)[C@H]2O)[C@H](O)[C@H]1O[C@H]1O[C@H](CO)[C@@H](O)[C@H](N)[C@H]1O [AN, Amikacin, reference compound] | 2 | 6.6E−07 | 1.7E−07 |  |  |  |  | 
3 | CO/N=C(\C(=O)N[C@@H]1C(=O)N2C(C(=O)[O-])=C(C[N+]3(C)CCCC3)CS[C@H]12)c1csc(N)n1 [FEP, Cefepime] |  |  |  |  |  |  |  | > 256
